Experimental data reported in patent US11999727B2 (Tango Therapeutics, Inc., priority 2020, dated 2024).

Legend:
[1] = system: HAP1 MTAP-deleted cell line; test: Viability assay, MTAP-deleted cell line; type: cell-based; details: Homo sapiens, read-out: HAP1 MTAP deleted viability
Source text: Table 1 additionally indicates IC50 values in a viability assay for the MTAP-deleted cell line (column 10), indicating the effect of treatment with compound on cell survival.

[2] = system: HAP1 MTAP-intact cell line; test: SDMA in-cell western assay, HAP1 MTAP-intact; type: cell-based; details: Homo sapiens, HAP1, SDMA in-cell western, HAP1 MTAP-intact; read-out: MTAP HAP1 intact IC50
Summary of the method: (§1)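 MTAP-null vs endogenous-MTAP HAP1 isogenic cells; in-cell western SDMA readout; IC50 per line.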

[3] = target: T1, PRMT5 (Homo sapiens, UniProt O14744); test: PRMT5 biochemical IC50 assay with no cofactor; details: PRMT5, no cofactor
T1 construct: purchased Viva (custom protein)
T1 sequence (O14744 whole entry): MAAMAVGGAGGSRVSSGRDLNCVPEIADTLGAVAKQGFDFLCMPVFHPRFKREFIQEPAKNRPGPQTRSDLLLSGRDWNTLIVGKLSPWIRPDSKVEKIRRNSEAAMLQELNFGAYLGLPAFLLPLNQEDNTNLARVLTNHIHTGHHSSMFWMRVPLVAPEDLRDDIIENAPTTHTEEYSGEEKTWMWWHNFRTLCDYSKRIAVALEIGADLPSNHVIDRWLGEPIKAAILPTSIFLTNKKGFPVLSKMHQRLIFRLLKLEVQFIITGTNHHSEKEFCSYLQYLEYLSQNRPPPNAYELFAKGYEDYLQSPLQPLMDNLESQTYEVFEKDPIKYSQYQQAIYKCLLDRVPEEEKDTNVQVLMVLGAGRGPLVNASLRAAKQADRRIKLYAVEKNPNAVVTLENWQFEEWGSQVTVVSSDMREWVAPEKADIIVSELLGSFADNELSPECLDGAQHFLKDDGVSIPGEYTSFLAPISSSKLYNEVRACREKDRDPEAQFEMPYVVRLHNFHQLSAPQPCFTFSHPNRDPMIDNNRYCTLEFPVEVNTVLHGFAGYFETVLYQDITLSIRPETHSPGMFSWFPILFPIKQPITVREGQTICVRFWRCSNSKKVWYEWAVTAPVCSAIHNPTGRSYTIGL
T1 sequence (Q9BQA1 whole entry partner): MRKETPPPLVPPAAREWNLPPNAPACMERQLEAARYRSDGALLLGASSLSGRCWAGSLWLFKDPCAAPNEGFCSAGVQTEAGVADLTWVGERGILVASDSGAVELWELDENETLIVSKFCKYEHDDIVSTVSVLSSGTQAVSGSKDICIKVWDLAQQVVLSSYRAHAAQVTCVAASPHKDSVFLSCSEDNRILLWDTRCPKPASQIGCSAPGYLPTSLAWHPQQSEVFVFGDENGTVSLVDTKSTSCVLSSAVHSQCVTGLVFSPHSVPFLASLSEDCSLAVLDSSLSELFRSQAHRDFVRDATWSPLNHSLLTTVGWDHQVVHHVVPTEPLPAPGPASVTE
Source text: Table 1 indicates IC50 values (μM) against PRMT5 for exemplary compounds in the presence of SAM as cofactor, with no cofactor, and with MTA as cofactor, respectively (columns 4-6). […] Ki values can be calculated from the IC50 values as described in the Examples section. As detailed in the Examples section, for the assay performed in the presence of SAM, IC50=Ki×1.5 (Ki=IC50/1.5).

[4] = system: HAP1 MTAP-deleted cell line; test: SDMA in-cell western assay, HAP1 MTAP-deleted; type: cell-based; details: for IC50: Homo sapiens, HAP1, SDMA in-cell western, HAP1 MTAP-deleted; for MTAP intact/deleted ratio: SDMA in-cell western
Summary of the method: as §1

[5] = target: T1, PRMT5; test: PRMT5 biochemical IC50 assay with MTA as cofactor; details: PRMT5, MTA as cofactor; read-out: MTA IC50
[6] = target: T1, PRMT5; test: PRMT5 biochemical IC50 assay with SAM as cofactor; details: PRMT5, SAM as cofactor; read-out: SAM IC50
[7] = HAP1, viability, HAP1 MTAP-deleted cell line
[8] = read-out: No Cofactor/ rel IC50
[9] = read-out: HAP 1 MTAP deleted IC50
[10] = IC50 ratio HAP1 MTAP-intact / HAP1 MTAP-deleted
[11] = HAP1, viability IC50, MTAP-deleted cell line
[12] = HAP1, viability assay, MTAP-deleted cell line
[13] = HAP1, viability assay, HAP1 MTAP-deleted
[14] = read-out: HAP1 MTAP deleted IC50

Row | IC50 [2] | IC50 [3, 8] | IC50 [4, 9] | IC50 [5] | IC50 [6] | IC50 ([3]; read-out: No Cofactor/rel IC50) | IC50 [4, 14] | SMILES | IC50 [1, 7] | MTAP intact/deleted ratio [4, 10] | IC50 [1, 11] | IC50 [1, 12] | IC50 [1, 13] | MTAP intact/deleted ratio ([4]; IC50 ratio HAP1 MTAP-intact vs HAP1 MTAP-deleted)
1 | < 100 nM | < 50 nM | < 100 nM | < 50 nM | < 50 nM | – | – | CCc1cc(NC(=O)C(=O)N2C[C@@H](C)CC[C@@H]2c2ccc3sc(C4CC5(C4)CN(C)C5)nc3c2)cnc1N [Compound 1283, N-(6-amino-5-ethylpyridin-3-yl)-2-((2R,5S)-5-methyl-2-(2-(2-methyl-2-azaspiro[3.3]heptan-6-yl)benzo[d]thiazol-5-yl)piperidin-1-yl)-2-oxoacetamide] | < 1000 nM | A (an IC50 ratio greater than or equal to 10 fold) | – | – | – | –
2 | > 1000 nM | – | 100 to 1000 nM | > 500 nM | > 500 nM | > 500 nM | – | C[C@H]1CC[C@H](c2ccc3[nH]ncc3c2F)N(C(=O)C(=O)Nc2cncc(C(N)=O)c2)C1 (single isomer, unassigned) [Compound 637] | – | A (an IC50 ratio greater than or equal to 10 fold) | > 10000 nM | – | – | –
3 | 100 to 1000 nM | 50 to 500 nM | < 100 nM | < 50 nM | 50 to 500 nM | – | – | Cc1cc(NC(=O)C(=O)N2C[C@H](C)CC[C@H]2C2CCCCC2)cnc1N (single isomer, unassigned) [Compound 148] | – | A (an IC50 ratio greater than or equal to 10 fold) | – | 1000 to 10000 nM | – | –
4 | > 1000 nM | 50 to 500 nM | > 1000 nM | 50 to 500 nM | 50 to 500 nM | – | – | Cc1cncc(NC(=O)C(=O)N2C[C@H](C)CC[C@H]2c2ccc(N)cc2)c1 (single isomer, unassigned) [Compound 67] | – | B (an IC50 ratio greater than or equal to 3 fold but lower than 10 fold) | – | > 10000 nM | – | –
5 | 100 to 1000 nM | – | – | 50 to 500 nM | 50 to 500 nM | 50 to 500 nM | < 100 nM | Cc1cc(NC(=O)C(=O)N2C[C@H](C)CC[C@H]2c2cc3[nH]ncc3s2)cnc1N (racemic) [Compound 743, N-(6-amino-5-methylpyridin-3-yl)-2-(5-methyl-2-(1H-thieno[3,2-c]pyrazol-5-yl)piperidin-1-yl)-2-oxoacetamide] | – | A (an IC50 ratio greater than or equal to 10 fold) | – | – | < 1000 nM | –
6 | > 1000 nM | – | – | < 50 nM | 50 to 500 nM | 50 to 500 nM | < 100 nM | Cc1cc(NC(=O)C(=O)N2C[C@H](C)CC[C@H]2c2ccc3ncsc3c2)cnc1N (racemic) [Compound 716, N-(6-amino-5-methyl-3-pyridyl)-2-[(2S,5R)-2-(1,3-benzothiazol-6-yl)-5-methyl-1-piperidyl]-2-oxo-acetamide] | – | A (an IC50 ratio greater than or equal to 10 fold) | – | – | < 1000 nM | –
7 | > 1000 nM | – | 100 to 1000 nM | 50 to 500 nM | 50 to 500 nM | 50 to 500 nM | – | Cc1cc(NC(=O)C(=O)N2C[C@H](C)CC[C@H]2c2ccc(-c3nccs3)cn2)cnc1N (racemic) [Compound 991] | – | C (an IC50 ratio of less than 3 fold) | – | 1000 to 10000 nM | – | –
8 | 100 to 1000 nM | – | – | < 50 nM | 50 to 500 nM | 50 to 500 nM | < 100 nM | Cc1ncc(NC(=O)C(=O)N2C[C@H](C)CC[C@H]2c2ccc3c(c2)CCC(=O)N3)cc1C(F)F (single isomer, unassigned) [Compound 874] | – | A (an IC50 ratio greater than or equal to 10 fold) | – | – | < 1000 nM | –
9 | > 1000 nM | – | > 1000 nM | > 500 nM | > 500 nM | > 500 nM | – | Cc1cc(NC(=O)C(=O)N2C[C@@H](C)CC[C@@H]2c2ccc(C(F)(F)F)cc2)cnc1N (single isomer, unassigned) [Compound 575] | – | C (an IC50 ratio of less than 3 fold) | > 10000 nM | – | – | –
10 | > 1000 nM | – | 100 to 1000 nM | < 50 nM | 50 to 500 nM | 50 to 500 nM | – | COc1ncc(NC(=O)C(=O)N2C[C@H](C)CC[C@H]2c2cnc3[nH]ncc3c2)cc1C(N)=O (single isomer, unassigned) [Compound 546] | – | A (an IC50 ratio greater than or equal to 10 fold) | 1000 to 10000 nM | – | – | –
11 | > 1000 nM | – | – | > 500 nM | > 500 nM | > 500 nM | > 1000 nM | C[C@H]1CC[C@H](c2ccc(N)cc2)N(C(=O)C(=O)Nc2cncc(C(N)=O)c2)C1 (single isomer, unassigned) [Compound 398] | – | B (an IC50 ratio greater than or equal to 3 fold but lower than 10 fold) | – | > 10000 nM | – | –
12 | 100 to 1000 nM | – | 100 to 1000 nM | 50 to 500 nM | 50 to 500 nM | 50 to 500 nM | – | C[C@H]1CC[C@H](c2ccc(F)cc2)N(C(=O)C(=O)Nc2cnc(OC(F)(F)F)c(C(N)=O)c2)C1 [Compound 1039, 5-[[2-[(2R,5S)-2-(4-fluorophenyl)-5-methyl-1-piperidyl]-2-oxo-acetyl]amino]-2-(trifluoromethoxy)pyridine-3-carboxamide] | – | C (an IC50 ratio of less than 3 fold) | – | 1000 to 10000 nM | – | –
13 | 100 to 1000 nM | – | – | < 50 nM | 50 to 500 nM | < 50 nM | < 100 nM | Cc1cc(NC(=O)C(=O)N2C[C@H](C)CC[C@H]2c2ccc3[nH]ncc3n2)cnc1N (single isomer, unassigned) [Compound 788] | – | A (an IC50 ratio greater than or equal to 10 fold) | – | – | < 1000 nM | –
14 | > 1000 nM | – | – | < 50 nM | 50 to 500 nM | 50 to 500 nM | < 100 nM | C[C@H]1CC[C@H](c2ccc(F)c(Cl)c2)N(C(=O)C(=O)Nc2cncc(C(N)=O)c2)C1 (single isomer, unassigned) [Compound 512] | – | A (an IC50 ratio greater than or equal to 10 fold) | – | 1000 to 10000 nM | – | –
15 | > 1000 nM | > 500 nM | 100 to 1000 nM | > 500 nM | > 500 nM | – | – | C[C@H]1CC[C@H](c2ccc3sc(CCN(C)C)nc3c2)N(C(=O)C(=O)Nc2cnc(N)c(C3CC3)c2)C1 (single isomer, unassigned) [Compound 1331] | 1000 to 10000 nM | A (an IC50 ratio greater than or equal to 10 fold) | – | – | – | –
16 | 100 to 1000 nM | < 50 nM | < 100 nM | < 50 nM | < 50 nM | – | – | CCc1cc(NC(=O)C(=O)N2C[C@@H](C)CC[C@@H]2c2ccc3sc(CCN4CCOCC4)nc3c2)cnc1N [Compound 1248, N-(6-amino-5-ethylpyridin-3-yl)-2-((2R,5S)-5-methyl-2-(2-(2-morpholinoethyl)benzo[d]thiazol-5-yl)piperidin-1-yl)-2-oxoacetamide] | < 1000 nM | A (an IC50 ratio greater than or equal to 10 fold) | – | – | – | –
17 | < 100 nM | – | – | < 50 nM | < 50 nM | < 50 nM | < 100 nM | CCc1cc(NC(=O)C(=O)N2C[C@@H](C)CC[C@@H]2c2ccc3sc(C4CCN(CCF)CC4)nc3c2)cnc1N [Compound 1174, N-(6-amino-5-ethylpyridin-3-yl)-2-((2R,5S)-2-(2-(1-(2-fluoroethyl)piperidin-4-yl)benzo[d]thiazol-5-yl)-5-methylpiperidin-1-yl)-2-oxoacetamide] | – | – | – | < 1000 nM | – | A (an IC50 ratio greater than or equal to 10 fold)
18 | > 1000 nM | – | – | < 50 nM | 50 to 500 nM | 50 to 500 nM | 100 to 1000 nM | C[C@@H]1CC[C@@H](c2ccc(NCC(F)(F)F)cc2)N(C(=O)C(=O)Nc2cncc(C(N)=O)c2)C1 (single isomer, unassigned) [Compound 455] | – | A (an IC50 ratio greater than or equal to 10 fold) | – | 1000 to 10000 nM | – | –
19 | > 1000 nM | – | – | < 50 nM | 50 to 500 nM | 50 to 500 nM | 100 to 1000 nM | C[C@@H]1CC[C@@H](c2ccc(CN3CCOCC3)cc2)N(C(=O)C(=O)Nc2cncc(C(N)=O)c2)C1 (racemic) [Compound 213] | – | A (an IC50 ratio greater than or equal to 10 fold) | – | > 10000 nM | – | –
